In ChEMBL document CHEMBL1142909, “Synthesis and insecticidal activity of chromanone and chromone analogues of diacylhydrazines” (2007):

How the values were obtained:
Format in all cases: functional
Mythimna separata = test: Insecticidal activity against Mythimna separata at 500 mg/L relative to control
Tetranychus cinnabarinus = test: Insecticidal activity against Tetranychus cinnabarinus at 250 mg/L relative to control
Nilaparvata lugens = test: Insecticidal activity against Nilaparvata lugens at 500 mg/L relative to control
Aphis = test: Insecticidal activity against Aphis medicagini at 250 mg/L relative to control

Row | SMILES | Activity (Mythimna separata) [%] | Activity (Tetranychus cinnabarinus) [%] | Activity (Nilaparvata lugens) [%] | Activity (Aphis) [%]
1 | CC1(C)CC(=O)c2cc(C(=O)NN(C(=O)c3ccc(F)cc3)C(C)(C)C)ccc2O1 | 0 | 0 | 0 | 4
2 | CC1(C)CC(=O)c2cc(C(=O)NN(C(=O)c3ccc(Br)cc3)C(C)(C)C)ccc2O1 | 6.7 | 0 | 0 | 4
3 | CC1(C)CC(=O)c2cc(C(=O)NN(C(=O)c3ccc(Cl)cc3)C(C)(C)C)ccc2O1 | 84.2 | 0 | 0 | 4.2
4 | CC(C)(C)N(NC(=O)c1cccc(Cl)c1)C(=O)c1coc2ccccc2c1=O | 20 | 0 | 0 | 4
5 | CC1(C)CC(=O)c2cc(C(=O)NN(C(=O)c3ccccc3F)C(C)(C)C)ccc2O1 | 0 | 76.7 | 3.4 | 4
6 | CC(C)(C)N(NC(=O)c1ccc(Cl)cc1)C(=O)c1coc2ccccc2c1=O | 66.7 | 0 | 0 | 2
7 | Cc1ccc2occ(C(=O)N(NC(=O)c3cccc(Cl)c3)C(C)(C)C)c(=O)c2c1 | 26.7 | 0 | 3.4 | 0
8 | Cc1ccccc1C(=O)N(NC(=O)c1ccc2c(c1)C(=O)CC(C)(C)O2)C(C)(C)C | 40 | 0 | 3.4 | 0
9 | Cc1cc(C)cc(C(=O)N(NC(=O)c2ccc3c(c2)C(=O)CC(C)(C)O3)C(C)(C)C)c1 | 100 | 66.7 | 7.1 | 8
10 | Cc1ccc2occ(C(=O)N(NC(=O)c3ccccc3)C(C)(C)C)c(=O)c2c1 | 60 | 51.7 | 0 | 0
11 | Cc1cccc(C(=O)NN(C(=O)c2coc3ccc(Cl)cc3c2=O)C(C)(C)C)c1 | 26.7 | 0 | 7.1 | 6
12 | CC1(C)CC(=O)c2cc(C(=O)NN(C(=O)c3ccccc3)C(C)(C)C)ccc2O1 | 80 | 0 | 0 | 8
13 | CC1(C)CC(=O)c2cc(C(=O)NN(C(=O)c3cccc(Cl)c3)C(C)(C)C)ccc2O1 | 13.3 | 0 | 0 | 0
14 | CC1(C)CC(=O)c2cc(C(=O)NN(C(=O)c3ccccc3Cl)C(C)(C)C)ccc2O1 | 66.7 | 58.3 | 0 | 8
15 | CC(C)(C)N(NC(=O)c1cccc(Cl)c1)C(=O)c1coc2ccc(Cl)cc2c1=O | 73.3 | 0 | 0 | 16
16 | CC(C)(C)N(NC(=O)c1ccccc1)C(=O)c1coc2ccccc2c1=O | 0 | 0 | 7.1 | 21.1
17 | CC(C)(C)N(NC(=O)c1ccccc1)C(=O)c1coc2ccc(Cl)cc2c1=O | 58.3 | 0 | 18.2 | 0
